From patent US20240041830A1, “CIRCULATING BIOMARKERS OF RESPONSE TO PD-1/PD-L1 BLOCKADE AND GSK-3 INHIBITION” (Brown University, priority 2022, published 2024)

How the values were obtained:
HCT-116 = experiment: microarray analysis; type: cell-based, human; conditions: HCT-116 by context; 24 hours vs untreated
Protocol: Microarrays. A total of 0.5×10^6 tumor cells (HCT-116, HT-29, KM12C) were plated in a 6-well plate and allowed to adhere overnight before 24-hour treatment, as indicated. Then, 1×10^6 immune cells (NK92, TALL-104) were plated and treated with elraglusib as indicated for twenty-four h. RNA was isolated from cell pellets in batches of six using a RNeasy Plus Mini Kit (Cat #74134, Qiagen, Hilden, Germany). Acceptable RNA concentration and quality were verified with Nanodrop and Bioanalyzer measurements. GeneChip™ Human Transcriptome Array 2.0 assays were conducted according to manufacturer instructions in two batches using randomized samples to limit batch effects (Cat #902162, Applied Biosystems, Waltham, MA, USA). Applied Biosystems Transcriptomic Analysis Console (TAC) software (RRID: SCR_016519) was used to calculate fold changes in gene expression relative to the untreated control cells. Values were considered statistically significant for p values<0.05.
The inventors then utilized microarray analysis to gain insights into gene expression changes in colorectal cancer cell lines post-GSK-3 inhibition with elraglusib. Several colorectal cancer cell lines (HCT-116, HT-29, KM12C) were treated with elraglusib at IC-50 concentrations or DMSO as vehicle control for twenty-four hours. Treated versus untreated samples were compared in triplicate using microarray analysis FIG. 10. Results were calculated using a fold change (FC) cutoff of >1.5, <−1.5, and a minimum p-value of<0.05. HCT-116 cells had 340 differentially expressed genes post-treatment. FIG. 2C.

NK-92 = experiment: Western blot analysis; type: cell-based, human
Protocol: (§1) Western blot analysis. Cells were plated in a 6-well plate and incubated overnight before the spent media was replaced with drugged media. Drug treatment lasted for indicated durations. Protein was extracted using radioimmunoprecipitation (RIPA) assay buffer (Cat #R0278, Sigma-Aldrich, St. Louis, MO, USA) containing cOmplete™, Mini, EDTA-free Protease Inhibitor Cocktail (Cat #4693159001, Roche, Basel, Switzerland) from sub-confluent cells. Denaturing sample buffer was added, samples were boiled at 95° C. for ten minutes, and an equal amount of protein lysate was electrophoresed through NuPAGE™ 4 to 12%, bis-Tris, 1.5 mm, Mini Protein Gels (Invitrogen, Waltham, MA, USA) then transferred to PVDF membranes. The PVDF membrane was blocked with 5% non-fat milk (Sigma-Aldrich, St. Louis, MO, USA) in 1× TTBS. Primary antibodies were incubated with the transferred PVDF membrane in blocking buffer at 4° C. overnight. Secondary antibodies included Goat anti-Rabbit IgG (H+L) Secondary Antibody, HRP (Cat #31460, Invitrogen, Waltham, MA, USA), and Goat anti-Mouse IgG (H+L) Secondary Antibody, HRP (Cat #31430, Invitrogen, Waltham, MA, USA). The signal was detected using Pierce™ ECL Western Blotting Substrate (Cat #32106, Thermo Scientific, Waltham, MA, USA) and a Syngene Imaging System (RRID: SCR_015770).
Because of the differential impact of elraglusib on tumor and immune cells that the inventors observed via Western blot, the inventors compared the levels of another survival protein Mcl-1 in NK-92 natural killer cells.

93T449 liposarcoma = experiment: Western blot analysis; type: cell-based; conditions: IC50, 48 hours
Protocol: as §1
(§2) Saos-2 osteosarcoma and 93T449 liposarcoma cell lines were pretreated at IC50 with elraglusib. The cells were harvested for Western blot analysis after 48 hours of treatment. Both cancer cell lines as well as TALL-104 T-cells and NK-92 NK cells were treated with 0.5 μM elraglusib for twenty-four hours and harvested for Luminex cytokine profiling.

Saos-2 osteosarcoma = experiment: Western blot analysis; type: cell-based; conditions: IC50, 48 hours
Protocol: as §1, §2

[1] = test system: GFP+ SW480 colorectal cancer cells; experiment: immune cell-killing co-culture assay (Example 1); type: cell-based, human
Protocol: A panel of human colorectal cell lines was chosen to provide a varied mutational background (TP53, KRAS, BRAF, TRK, APC, PIK3CA). Cells were treated with elraglusib at doses up to 50 μM for seventy-two hours to determine IC10, IC30, IC50, and IC70. Cytokine, chemokine, and growth factor levels were analyzed in the tumor cell culture supernatants after treatment at IC10, IC30, IC50, and IC70 for forty-eight hours using a Luminex 200 multiplexing instrument. Co-culture experiments were conducted with GFP+ SW480 colorectal cancer cells and either NK-92 natural killer cells or TALL-104 T cells at various effector/target ratios in a 48-well plate, in the presence or absence of elraglusib.

HT-29 GFP+ cells = experiment: single-color GFP+ immune cell co-culture
Protocol: Single-color immune cell co-culture experiments. A total of 5000 HT-29 GFP+ or HCT 116 GFP+ cells were plated per well in a clear-bottom, black-walled 96-well tissue culture plate and were allowed to adhere overnight. Cells were subsequently treated with DMSO, 5 μM elraglusib, or 5000 TALL-104 or NK-92 cells (for an effector-to-tumor ratio of 1:1) for forty-eight hours. Nine images were taken per well at 10× magnification using a Molecular Devices ImageXpress® Confocal HT.ai High-Content Imaging System and quantified for the number of GFP+ objects using the MetaXpress (RRID: SCR_016654) software (Molecular Devices, San Jose, CA, USA). 40× images were also taken at twenty-four hours for representative images of cellular morphology changes.
To determine if pyroptosis-mediated immune cell activity played a role in the co-culture results, the inventors examined higher-power co-culture images for evidence of pyroptosis.

[2] = immune cells, cell line not given
[3] = vs controls without drug treatment

Cn1cc(C2=C(c3coc4ccc(F)cc34)C(=O)NC2=O)c2cc3c(cc21)OCO3 [elraglusib]
CMTM4 fold change (HCT-116): −1.84 | NEK2 fold change (HCT-116): −2.21 | PPP1R1C fold change (HCT-116): 1.78 | NF-κB-inducing kinase (NIK) expression (NK-92; [2]): increases | Survivin expression (NK-92; [2]): increases | Mcl-1 protein expression (NK-92; through the 72-hour endpoint): did not observe a significant decrease | cPARP (93T449 liposarcoma): increase | PD-L1 expression (93T449 liposarcoma; cell line not given): increase | cPARP (Saos-2 osteosarcoma): increase | PD-L1 expression (Saos-2 osteosarcoma; cell line not given): increase | cell-killing after pre-treatment of the target tumor cells ([1]; pre-treatment of tumor cells, but not effector immune cells): bolstered cell-killing | T cell (TALL-104) killing of colorectal cancer cells [1, 3]: significant increase | natural killer (NK-92) cell killing of colorectal cancer cells [1, 3]: significant increase | tumor cell death, significance (HT-29 GFP+ cells; NK-92 + elraglusib vs elraglusib only): did not show statistical significance | tumor cell death (HT-29 GFP+ cells; NK-92 + elraglusib vs immune cells only and DMSO only): increased tumor cell death | tumor cell death (HT-29 GFP+ cells; TALL-104 + 5 μM elraglusib vs drug-only or T cell-only): increased tumor cell death | pyroptotic events (HT-29 GFP+ cells; co-culture with TALL-104, 5 μM elraglusib): significant increase
